This is an account of results in paper PMC4626215, “Esculentin-2CHa-Related Peptides Modulate Islet Cell Function and Improve Glucose Tolerance in Mice with Diet-Induced Obesity and Insulin Resistance” (PLoS ONE, 2015).

Bridges are numbered along the chain shown (N, C = ends). Where no end group is shown, it is not given here.

For data set [1], the system named is BRIN-BD11 rat clonal β-cells. The data set can be described thus: In vitro insulin release from BRIN-BD11 cells. Conditions: 5.6 mM glucose; for BRIN-BD11 cells (Threshold concentration): minimum concentration producing a significant increase in rate of insulin release, 37°C. The data set is classed as cell-based.
Experimental: (§2) In vitro insulin-releasing effects of esculentin-2CHa and its analogues were assessed using BRIN-BD11 rat clonal β-cells and mouse islets. In the first set of experiments, BRIN-BD11 cells were incubated with the peptides in the concentration range (1 pM– 3 μM) in Krebs-Ringer bicarbonate buffer containing 5.6 mM glucose for 20 min at 37°C as previously described [15–17]. Insulin-releasing effects were also assessed using buffer supplemented with 1.4 and 16.7mm glucose concentrations and with established modulators of insulin release as previously described [15–17]. In a second set of experiments, islets from NIH Swiss mice, isolated by collagenase digestion [18, 19], were incubated with a range of concentrations of esculentin-2CHa or its analogues (0.1 nM– 1 μM) for 1 h in Krebs-Ringer bicarbonate (KRB) buffer supplemented with 1.4, 5.6 or 16.7 mM glucose. Following test incubations, aliquots of buffer were retrieved and stored at -20°C for measurement of insulin by radioimmunoassay [20].
For data set [2], the system named is islets from NIH Swiss mice. The data set can be described thus: In vitro insulin release from isolated mouse islets. Type of data set: cell-based. Conditions: 16.7 mM glucose; for Stimulation of insulin release from islets, fold of basal: 1 μM, 1 h; for Mouse islets (Threshold concentration): insulin release, 1 h incubation, n = 8.
Experimental: as §2
The subject of data set [3] is BRIN-BD11 cells. Conditions: 3 μM peptide (highest concentration); mean ± SEM, n = 8. On the procedure: In vitro insulin-releasing effects of esculentin-2CHa and its analogues were assessed using BRIN-BD11 rat clonal β-cells and mouse islets. In the first set of experiments, BRIN-BD11 cells were incubated with the peptides in the concentration range (1 pM– 3 μM) in Krebs-Ringer bicarbonate buffer containing 5.6 mM glucose for 20 min at 37°C as previously described. Insulin-releasing effects were also assessed using buffer supplemented with 1.4 and 16.7mm glucose concentrations and with established modulators of insulin release as previously described. In a second set of experiments, islets from NIH Swiss mice, isolated by collagenase digestion, were incubated with a range of concentrations of esculentin-2CHa or its analogues (0.1 nM– 1 μM) for 1 h in Krebs-Ringer bicarbonate (KRB) buffer supplemented with 1.4, 5.6 or 16.7 mM glucose. Following test incubations, aliquots of buffer were retrieved and stored at -20°C for measurement of insulin by radioimmunoassay. In the experiments with BRIN-BD11 cells, the release of lactate dehydrogenase (LDH) was measured as an indicator of the integrity of the plasma membrane using commercially available CytoTox 96 non-radioactive cytotoxicity assay kit (Promega, Madison, WI, USA) according to the manufacturer’s recommended protocol.

The subject of data set [4] is BRIN-BD11 cells. The data set is described as follows: Membrane potential, FLIPR membrane assay kit. The data set is classed as cell-based, rat. Conditions: for Membrane potential (AUC, x 10^3 RFU): 1 μM peptide, 5 min, mean ± SEM, n = 8. On the procedure: (§1) Effects of esculentin-2CHa (1 μM) and its analogues on membrane potential and [Ca^2+]i in BRIN-BD11 cells over a period of 5 min were assessed using commercially available FLIPR membrane or calcium assay kit (Molecular Devices, USA) as previously described. Data were captured using a Flexstation 3 microplate reader equipped with automatic fluid transfer unit (Molecular Devices, USA).

For data set [5], the system named is BRIN-BD11 cells. The data set can be described thus: Intracellular calcium ([Ca2+]i), FLIPR calcium assay kit. The data set is classed as cell-based, rat. Conditions: for Intracellular Ca2+ (AUC, x 10^2 RFU): 1 μM peptide, 5 min, mean ± SEM, n = 8. On the procedure: as §1
Data set [6] deals with high fat fed mice. The data set can be described thus: Acute in vivo glucose tolerance and insulin release. Conditions: for Plasma glucose (AUC) / Plasma insulin (AUC): ip glucose 18 mmol/kg with peptide 75 nmol/kg, AUC 0-60 min, mean ± SEM, n = 8. Also on record: species or system mouse. How it is done:
Male National Institutes of Health (NIH) Swiss mice (Harlan Ltd, UK) were housed separately in an air-conditioned room (22 ± 2°C) with relative humidity of 51 ± 5% and a 12-hour light: 12-hour dark cycle and maintained on a high fat diet containing 45% fat, 20% protein and 35% carbohydrate (total energy 19.5 kJ/g, Dietex International Ltd, Witham, UK) for 120 days. Mice maintained on standard rodent diet containing 10% fat, 30% protein and 60% carbohydrates (total energy 12.99 kJ/g) were used as controls. Both groups of animals were allowed food and water ad libitum. All animal experiments were carried out in accordance with the UK Animals (Scientific Procedures) Act 1986 and EU Directive 2010/63EU for animal experiments. The study was approved by University of Ulster Research Ethics Committee.
For acute in vivo studies, overnight fasted, high fat fed mice (n = 8) received an intraperitoneal injection of glucose alone (18 mmol/kg body weight) or in combination with esculentin-2CHa or its analogues (75 nmol/kg body weight). This peptide dose was selected on the basis of a pilot study that examined acute effects of different doses of esculentin-2CHa on glucose tolerance in lean mice. Blood samples were collected as described previously before injection and at times indicated in the Figures for the measurement of plasma glucose and insulin concentrations.
Pancreatic tissues were homogenized in 20 mM Tris-HCl, 150 mM NaCl, 1 mM EDTA, 1 mM EGTA and 0.5% Triton X 100; pH 7.5 as previously described. Blood samples (approximately 150 μl), collected from the cut tip of the tail vein of unanesthetized mice at intervals indicated in the Figures were used for blood glucose measurements and determination of plasma insulin as previously described. Blood glucose was measured using a hand-held Ascencia Contour meter (Bayer Healthcare, UK). Plasma and pancreatic insulin were determined by radioimmunoassay. Plasma and pancreatic glucagon contents were determined by ELISA using commercially available kit (Millipore, MA, USA). Plasma creatinine, alanine transaminase (ALT), aspartic acid transaminase (AST) and alkaline phosphatase (ALP) were measured using commercially available kits (Randox Laboratories, UK) as indicators of renal and liver function. Plasma triglyceride and cholesterol concentrations were measured using an automated clinical chemistry analyser (I-lab 650, and reagents purchased from Instrumentation Laboratory (Warrington, UK). The assay kit for cholesterol was obtained from Randox Laboratories (Antrim, UK). Estimation of LDL cholesterol concentrations was achieved using the Friedewald equation as described previously.

The mark [7] stands for this setting: peptide 75 nmol/kg ip with glucose 18 mmol/kg.

Regarding “GFSSIFRGVAKFASKGLGKKLAKLGVKLVACKISKQC (disulfide 31-37 (inferred)) [[D20K, D27K]Esculentin-2CHa, analogue with Asp20 and Asp27 replaced by L-Lysine]”, the “BRIN-BD11 cells (Threshold concentration)” value (from here on “BRIN-BD11 cells”) in data set [1] (20 min, n = 8) came to 100 pM. Also, in data set [2], the “Stimulation of insulin release from islets, fold of basal” value (from here on “Stimulation … fold of basal”) stood at 1.7 fold and the “Mouse islets (Threshold concentration)” value is given as 10 nM. The “LDH release (% of control)” value in data set [3] was 102.5±2.6 % of control. The “Membrane potential (AUC, x 10^3 RFU)” value in data set [4] is on record as 7.85±0.32 x 10^3 RFU. Besides, the “Intracellular Ca2+ (AUC, x 10^2 RFU)” value in data set [5] is given as 6.10±0.46 x 10^2 RFU. In addition, in data set [6], the “Plasma glucose (AUC)” value is listed as 667.78±60.23^ΔΔ mmol/l.min and the “Plasma insulin (AUC)” value is on record as 122.96±16.76^Δ ng/ml.min.

In the case of “GFSSIFRGVAKFASKGLGKDKAKLGVDLVACKISKQC (disulfide 31-37 (inferred)) [[L21K]Esculentin-2CHa, substituted analogue of esculentin-2CHa with increased cationicity]”, the “BRIN-BD11 cells” value in data set [1] (20 min, n = 8) came out at 10 pM. In data set [2], the “Stimulation … fold of basal” value came out at 2.6 fold and the “Mouse islets (Threshold concentration)” value is listed as 10 nM. For the same molecule, the “LDH release (% of control)” value in data set [3] is given as 100.6±2.0 % of control. The “Membrane potential (AUC, x 10^3 RFU)” value in data set [4] was 7.78±0.31 x 10^3 RFU. For the same molecule, in data set [5], the “Intracellular Ca2+ (AUC, x 10^2 RFU)” value is listed as 6.14±0.41 x 10^2 RFU. Also, in data set [6], the “Plasma glucose (AUC)” value was 598.68±35.23^ΔΔ mmol/l.min and the “Plasma insulin (AUC)” value is on record as 131.12±14.25^Δ ng/ml.min.

On to “GFSSIFRGVAKFASKGLGKDLAKLGVDLVAKKISKQC [[C31K]Esculentin-2CHa, substituted analogue of esculentin-2CHa with increased cationicity]”, for which the “Stimulatory effect on insulin release at 3 μM compared with native peptide” value in data set [1] (3 μM) is given as “greater”. Also, the “BRIN-BD11 cells” value in data set [1] (20 min, n = 8) worked out at 10 pM. Besides, in data set [2], the “Stimulation … fold of basal” value is on record as 3.3 fold and the “Mouse islets (Threshold concentration)” value turned out to be 0.1 nM. Also, in data set [3], the “LDH release (% of control)” value is 100.2±2.8 % of control. For the same molecule, the “Membrane potential (AUC, x 10^3 RFU)” value in data set [4] is 7.92±0.14 x 10^3 RFU. Further, in data set [5], the “Intracellular Ca2+ (AUC, x 10^2 RFU)” value is recorded as 6.32±0.72 x 10^2 RFU. For the same molecule, in data set [6], the “Plasma glucose (AUC)” value was 410.72 ± 29.25 mmol·min/L and the “Plasma insulin (AUC)” value is listed as 240.32±31.04 ^,ΔΔΔ ng/ml.min. In data set [6] (setting [7]), the “Decrease of plasma glucose AUC versus glucose alone” value came to 40% and the “Stimulation of insulin response relative to that with esculentin-2CHa” value was determined as 2.4 fold.

For `C[C@H](N)C(=O)O` [alanine, reference compound], in data set [1] (10 mM, 20 min, n = 8), the “Increase of insulin secretion, fold of basal” value stood at 7.3 fold. Moreover, the “Increase of intracellular Ca2+” value in data set [5] (10 mM) is 4.6 fold.

With “GFSSIFRGVAKFASKGLGKDLAKLGVDLVASKISKQS [[C31S,C37S]Esculentin-2CHa, analogue with Cys31 and Cys37 replaced by serine]”, the “BRIN-BD11 cells” value in data set [1] (20 min, n = 8) was found to be 10 pM. In data set [2], the “Stimulation … fold of basal” value is recorded as 2.6 fold and the “Mouse islets (Threshold concentration)” value is recorded as 1 nM. In addition, in data set [3], the “LDH release (% of control)” value is on record as 104.3±3.1 % of control. Besides, in data set [4], the “Membrane potential (AUC, x 10^3 RFU)” value is recorded as 7.96±0.24 x 10^3 RFU. For the same molecule, in data set [5], the “Intracellular Ca2+ (AUC, x 10^2 RFU)” value is given as 6.55±0.36 x 10^2 RFU. For the same molecule, in data set [6], the “Plasma glucose (AUC)” value is listed as 618.65±86.0^ΔΔ mmol/l.min and the “Plasma insulin (AUC)” value is given as 122.74±28.65^Δ ng/ml.min.

Turning to `[Cl-].[K+]` [KCl, reference compound], the “Increase of membrane potential” value in data set [4] (30 mM) amounted to 5.2 fold.

As to “GFSSIFRGVAKFASKGLGKDLAKLGVDLVACKISKQC (disulfide 31-37 (inferred)) [Esculentin-2CHa, frog skin host-defense peptide first isolated from Lithobates chiricahuensis; synthetic]”, the “Insulin-secretory response, fold of basal” value in data set [1] (3 μM peptide, 20 min) worked out at 10.3 fold. Besides, in data set [2], the “Stimulation … fold of basal” value stood at 2.7 fold and the “Mouse islets (Threshold concentration)” value is 10 nM. The “LDH release (% of control)” value in data set [3] was 102.7±1.1 % of control. Also, the “Membrane potential (AUC, x 10^3 RFU)” value in data set [4] is given as 8.01±0.28 x 10^3 RFU. Also, the “Intracellular Ca2+ (AUC, x 10^2 RFU)” value in data set [5] is 6.44±0.47 x 10^2 RFU. Besides, in data set [6], the “Plasma glucose (AUC)” value is 463.99 ± 46.95 mmol·min/L and the “Plasma insulin (AUC)” value was found to be 165.05 ± 16.89 ng·min/mL. Also, in data set [6] (setting [7]), the “Decrease of plasma glucose AUC versus glucose alone” value stood at 33% and the “Increase in integrated plasma insulin response versus glucose alone” value came to 48%.

As to “GFSSIFRGVAKFASKGLGKDLAKKGVDLVACKISKQC (disulfide 31-37 (inferred)) [[L24K]Esculentin-2CHa, substituted analogue of esculentin-2CHa with increased cationicity]”, the “BRIN-BD11 cells” value in data set [1] (20 min, n = 8) is 10 pM. Further, in data set [2], the “Stimulation … fold of basal” value is listed as 2.3 fold and the “Mouse islets (Threshold concentration)” value was 10 nM. Besides, in data set [3], the “LDH release (% of control)” value is 101.3±3.1 % of control. Further, the “Membrane potential (AUC, x 10^3 RFU)” value in data set [4] is listed as 7.87±0.19 x 10^3 RFU. In addition, the “Intracellular Ca2+ (AUC, x 10^2 RFU)” value in data set [5] was 6.28±0.62 x 10^2 RFU. In data set [6], the “Plasma glucose (AUC)” value is 662.25±32.14^ΔΔ mmol/l.min and the “Plasma insulin (AUC)” value is on record as 129.89±11.02^Δ ng/ml.min.

Take “GLP-1: incretin hormone used as positive control for islet insulin release [reference compound]”: the “Stimulation … fold of basal” value in data set [2] is reported as 2.4 fold.
